Consider 1 compound from paper PMC5773577, “Novel Miniature Membrane Active Lipopeptidomimetics against Planktonic and Biofilm Embedded Methicillin-Resistant Staphylococcus aureus” (Scientific Reports, 2018).

In brackets after ≈: the same amount, converted by molar mass.

Assay [1] deals with Methicillin-resistant S. epidermidis (ATCC 35984). Nature of the assay: microbe, parasite or virus in culture. It counts as cell-based, Staphylococcus epidermidis. Conditions: Staphylococcus epidermidis, ATCC 35984 / MRSE; MRSE ATCC 35984; MHB, 2–5 × 10^5 CFU/mL, 16–18 h, 37 °C, OD600; read-out: Minimum inhibitory concentration, MIC. On the procedure:
(§1) The antibacterial activity was evaluated as MIC using slight modifications to a serial broth micro dilution method as reported previously[66],[67]. Briefly, to each treatment well of the 96-well plate (Corning Incorporated, USA) 10 μL of peptidomimetic/antibiotic was added and subsequently diluted serial 2-fold in 0.2% BSA (in 0.01% acetic acid). Then to each well of the first 11 columns 100 μL of mid-log phase bacterial suspension in MHB medium was added to get 2–5 × 10^5 CFU/mL. Cultures without test peptidomimetics/antibiotics were used as growth control. Uninoculated MHB medium was used as negative control. The microtitre plates were incubated overnight with agitation (180 rpm) at 37 °C. After 16–18 h incubation, absorbance was read at 600 nm using an ELISA plate reader (Molecular Devices, Sunnyvale, CA, USA). The experiments were carried out in duplicate on at least three different days.

The test system of assay [2] is E. faecium (E-447), clinical isolate of vancomycin-resistant E. faecium. Put plainly: organism not typed. The class given is cell-based, Enterococcus faecium. Conditions: read-out: Minimum inhibitory concentration, MIC. On the procedure:
as §1

The subject of assay [3] is E. faecium (E-7846), clinical isolate of vancomycin-resistant E. faecium. Put plainly: organism not typed. Conditions: read-out: Minimum inhibitory concentration, MIC. It counts as cell-based, Enterococcus faecium. On the procedure:
as §1

Assay [4] relates to S. aureus (ATCC 25923). Nature of the assay: microbe, parasite or virus in culture. The class given is cell-based, Staphylococcus aureus. The settings on record: Staphylococcus aureus, ATCC25923, MHB, 2–5 × 10^5 CFU/mL, 16–18 h, 37 °C, OD600, read-out: Minimum inhibitory concentration, MIC. On the procedure:
as §1

The subject of assay [5] is S. aureus (ISP479C). Nature of the assay: microbe, parasite or virus in culture. It counts as cell-based, Staphylococcus aureus. The settings on record: Staphylococcus aureus, MHB, 2–5 × 10^5 CFU/mL, 16–18 h, 37 °C, OD600, read-out: Minimum inhibitory concentration, MIC. On the procedure: as §1
The subject of assay [6] is MRSA (ATCC 43300). Put plainly: microbe, parasite or virus in culture. The class given is cell-based, Staphylococcus aureus. The settings on record: Staphylococcus aureus, MHB, 2–5 × 10^5 CFU/mL, 16–18 h, 37 °C, OD600, read-out: Minimum inhibitory concentration, MIC. On the procedure: as §1
Assay [7] concerns MRSA (ATCC 33591). Put plainly: microbe, parasite or virus in culture. It counts as cell-based, Staphylococcus aureus. The settings on record: Staphylococcus aureus, MHB, 2–5 × 10^5 CFU/mL, 16–18 h, 37 °C, OD600, read-out: Minimum inhibitory concentration, MIC. On the procedure:
as §1

Assay [8] relates to S. aureus (ATCC 29213). Put plainly: microbe, parasite or virus in culture. The settings on record: Staphylococcus aureus, ATCC29213, MHB, 2–5 × 10^5 CFU/mL, 16–18 h, 37 °C, OD600, duplicate, at least three days, read-out: Minimum inhibitory concentration, MIC. It counts as cell-based, Staphylococcus aureus. On the procedure: as §1
Assay [9] concerns E. faecalis (ATCC 29212). Nature of the assay: microbe, parasite or virus in culture. It counts as cell-based. Conditions: Enterococcus faecalis, ATCC29212, MHB, 2–5 × 10^5 CFU/mL, 16–18 h, 37 °C, read-out: Minimum inhibitory concentration, MIC. On the procedure: as §1
Assay [10] deals with Vancomycin-resistant E. faecium (ATCC 700221). Nature of the assay: microbe, parasite or virus in culture. It counts as cell-based. Conditions: Enterococcus faecium, ATCC700221, MHB, 2–5 × 10^5 CFU/mL, 16–18 h, 37 °C, read-out: Minimum inhibitory concentration, MIC. On the procedure:
as §1

`Cc1onc(-c2ccccc2)c1C(=O)N[C@@H]1C(=O)N2[C@@H]1SC(C)(C)[C@@H]2C(=O)O` [OXA, oxacillin]: the MIC was above 45.4 µg/mL in assay [1]; above 233 µg/mL in [2]; above 233 µg/mL in [3]; below 0.3 µg/mL in [4]; 0.3 µg/mL (≈ 0.747 µM) in assay [5]; 56.8 µg/mL (≈ 141 µM) in assay [6]. Besides, the MIC in assay [7] was 56.8 µg/mL (≈ 141 µM); in assay [8] it was below 0.3 µg/mL; in assay [9], 5.6 µg/mL (≈ 13.9 µM); in [10], above 45.4 µg/mL.
